From publication PMC6510822, “Identification of anticancer OATP2B1 substrates by an in vitro triple-fluorescence-based cytotoxicity screen” (Archives of Toxicology, 2019)
Like-named read-outs stand apart in the source and are kept apart here.

Columns and labels:
[1] = tested on: Mes-Sa-B1 cells (Pgp overexpressing); assay: Fluorescence-based cytotoxicity assay, Mes-Sa-B1 mOr
Mes-Sa/Dx5 cells = assay: Fluorescence-based cytotoxicity assay, Mes-Sa/Dx5 eGFP; conditions: for RR (Dx5): resistance ratio = IC50 Mes-Sa/Dx5 / IC50 parental Mes-Sa
[2] = tested on: A431-B1 cells (ABCB1/P-glycoprotein expressing); assay: Fluorescence-based cytotoxicity assay, ABCB1-expressing A431-B1 mCh
A431 cells = assay: Fluorescence-based cytotoxicity assay, parental A431 eGFP; conditions: Homo sapiens
[3] = tested on: A431-G2 cells (ABCG2 expressing); assay: Fluorescence-based cytotoxicity assay, ABCG2-expressing A431-G2 mOr
OATP2B1 [4] = assay: Fluorescence-based cytotoxicity assay, OATP2B1-expressing A431-2B1 mCh; conditions: human
[5] = tested on: A431-2B1 cells (OATP2B1 expressing); assay: as above
OATP2B1 [6] = molecular target: T1, OATP2B1 (Homo sapiens, UniProt O94956); assay: Inhibition of OATP2B1-mediated Cascade Blue uptake (microplate-based uptake assay, A431-2B1 cells)
T1 sequence (O94956 1-709): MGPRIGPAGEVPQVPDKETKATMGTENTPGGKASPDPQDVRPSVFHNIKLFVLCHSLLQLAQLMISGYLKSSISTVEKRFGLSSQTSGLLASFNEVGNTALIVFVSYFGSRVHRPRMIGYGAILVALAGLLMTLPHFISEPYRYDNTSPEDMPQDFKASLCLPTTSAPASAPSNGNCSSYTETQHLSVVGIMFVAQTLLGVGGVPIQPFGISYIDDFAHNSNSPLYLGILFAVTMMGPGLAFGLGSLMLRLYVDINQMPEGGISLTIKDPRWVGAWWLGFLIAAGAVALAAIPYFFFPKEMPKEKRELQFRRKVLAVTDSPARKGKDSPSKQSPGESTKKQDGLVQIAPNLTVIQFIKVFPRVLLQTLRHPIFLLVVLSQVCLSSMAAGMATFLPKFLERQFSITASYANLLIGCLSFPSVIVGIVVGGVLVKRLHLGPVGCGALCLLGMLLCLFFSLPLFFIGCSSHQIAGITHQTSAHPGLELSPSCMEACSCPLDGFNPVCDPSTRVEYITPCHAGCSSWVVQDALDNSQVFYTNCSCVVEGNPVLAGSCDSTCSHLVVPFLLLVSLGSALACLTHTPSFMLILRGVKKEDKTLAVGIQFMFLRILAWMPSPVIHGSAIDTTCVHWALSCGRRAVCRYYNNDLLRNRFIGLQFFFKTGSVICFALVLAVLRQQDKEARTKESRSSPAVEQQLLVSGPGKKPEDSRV

[7] = selectivity ratio = IC50 parental Mes-Sa / IC50 Mes-Sa-B1, triple co-culture screen
[8] = selectivity ratio = IC50 parental Mes-Sa / IC50 Mes-Sa/Dx5, triple co-culture screen
[9] = triple co-culture, result in words
[10] = resistance ratio = IC50 Mes-Sa-B1 / IC50 parental Mes-Sa, triple co-culture screen
[11] = resistance ratio = IC50 A431B1 / IC50 parental A431, triple co-culture screen
[12] = primary screen, co-culture, Fig. 4 inset

C/C=C1\NC(=O)[C@H]2CSSCC/C=C/[C@H](CC(=O)N[C@H](C(C)C)C(=O)N2)OC(=O)[C@H](C(C)C)NC1=O [NSC-754143, Romidepsin]
RR (Mes-Sa-B1) [1]: 331.70
RR (Dx5) (Mes-Sa/Dx5 cells; triple co-culture screen): > 234.15
RR (A431B1) [2]: > 97

CCc1c2c(nc3ccc(OC(=O)N4CCC(N5CCCCC5)CC4)cc13)-c1cc3c(c(=O)n1C2)COC(=O)[C@]3(O)CC [NSC-616348, Irinotecan]
IC50 (A431 cells; A-431, read-out: IC50 (µM) A431 eGFP, co-culture): 13.8 µM
IC50 (A431 cells; A-431, read-out: IC50 (µM) A431 eGFP, monoculture): 11.1 µM
Effect of ABCG2 expression on toxicity (A431-G2 vs parental A431) [3]: conferred resistance

Nc1nc2[nH]cc(CCc3ccc(C(=O)N[C@@H](CCC(=O)O)C(=O)O)cc3)c2c(=O)[nH]1 [NSC-698037, Pemetrexed]
SR (Mes-Sa-B1) [1, 7]: 1.14
SR (Mes-Sa/DX5) (Mes-Sa/Dx5 cells; [8]): 3.29

CS(=O)(=O)CCNCc1ccc(-c2ccc3ncnc(Nc4ccc(OCc5cccc(F)c5)c(Cl)c4)c3c2)o1 [lapatinib]
Effect of ABCG2 expression on toxicity (A431-G2 vs parental A431) [3, 9]: conferred resistance

C/C(=C\c1csc(C)n1)[C@@H]1C[C@@H]2O[C@]2(C)CCC[C@H](C)[C@H](O)[C@@H](C)C(=O)C(C)(C)[C@@H](O)CC(=O)N1 [NSC-747973, Ixabepilone]
RR (Mes-Sa-B1) [1]: >208.3
RR (Dx5) (Mes-Sa/Dx5 cells; triple co-culture screen): 9.66
RR (A431B1) [2]: 23.32

Nc1nc2nc[nH]c2c(=S)[nH]1 [NSC-752, Thioguanine]
SR (Mes-Sa-B1) [1, 7]: 0.41
SR (Mes-Sa/DX5) (Mes-Sa/Dx5 cells; [8]): 6.93

Nc1nc(Cl)nc2c1ncn2[C@@H]1O[C@H](CO)[C@@H](O)[C@@H]1F [NSC-606869, Clofarabine]
SR (Mes-Sa-B1) [1]: 0.91
SR (Mes-Sa/DX5) (Mes-Sa/Dx5 cells; [8]): 3.44
Effect of ABCG2 expression on toxicity (A431-G2 vs parental A431) [3]: conferred resistance

CO[C@H]1C(=O)[C@]2(C)[C@@H](OC)C[C@H]3OC[C@@]3(OC(C)=O)[C@H]2[C@H](OC(=O)c2ccccc2)[C@]2(O)C[C@H](OC(=O)[C@H](O)[C@@H](NC(=O)OC(C)(C)C)c3ccccc3)C(C)=C1C2(C)C [NSC-761432, Cabazitaxel]
RR (Mes-Sa-B1) [1, 10]: 63.00
RR (Dx5) (Mes-Sa/Dx5 cells; triple co-culture screen): > 107.00
RR (A431B1) [2, 11]: 6.00

CC[C@@]1(O)C(=O)OCc2c1cc1n(c2=O)Cc2cc3c(CN(C)C)c(O)ccc3nc2-1 [topotecan]
Effect of ABCG2 expression on toxicity (A431-G2 vs parental A431) [3, 9]: conferred resistance

S=c1[nH]cnc2nc[nH]c12 [NSC-755, Mercaptopurine]
SR (Mes-Sa-B1) [1, 7]: 0.39
SR (Mes-Sa/DX5) (Mes-Sa/Dx5 cells; [8]): 3.87
Effect of ABCG2 expression on toxicity (A431-G2 vs parental A431) [3, 9]: conferred resistance

O=c1[nH]c(=O)n([C@H]2C[C@H](O)[C@@H](CO)O2)cc1F [NSC-27640, Floxuridin]
SR (A431-2B1 vs parental A431), screening of DTP Oncology Set IV [5, 12]: 12.31

CCC1=C[C@@H]2CN(C1)Cc1c([nH]c3ccccc13)[C@@](C(=O)OC)(c1cc3c(cc1OC)N(C)[C@H]1[C@@](O)(C(=O)OC)[C@H](OC(C)=O)[C@]4(CC)C=CCN5CC[C@]31[C@@H]54)C2 [NSC-608210, Vinorelbine]
RR (Mes-Sa-B1) [1, 10]: 725.00
RR (Dx5) (Mes-Sa/Dx5 cells; triple co-culture screen): 861.00
RR (A431B1) [2, 11]: 232.00

Cc1nc(Nc2ncc(C(=O)Nc3c(C)cccc3Cl)s2)cc(N2CCN(CCO)CC2)n1 [NSC-732517, Dasatinib]
RR (Mes-Sa-B1) [1, 10]: 3.147
RR (Dx5) (Mes-Sa/Dx5 cells; triple co-culture screen): > 3.60
RR (A431B1) [2]: 11.5
Effect of ABCG2 expression on toxicity (A431-G2 vs parental A431) [3]: conferred resistance

CC(C)C[C@H](NC(=O)[C@H](Cc1ccccc1)NC(=O)c1cnccn1)B(O)O [bortezomib]
RR (Mes-Sa-B1) [1, 10]: 4.3
RR (Dx5) (Mes-Sa/Dx5 cells; triple co-culture screen): 17
RR (A431B1) [2, 11]: 2.7

CC(=O)O[C@H]1C(=O)[C@@]2(C)[C@H]([C@H](OC(=O)c3ccccc3)[C@]3(O)C[C@H](OC(=O)[C@H](O)[C@@H](NC(=O)c4ccccc4)c4ccccc4)C(C)=C1C3(C)C)[C@]1(OC(C)=O)CO[C@@H]1C[C@@H]2O [NSC-125973, Taxol]
RR (Mes-Sa-B1) [1, 10]: 593.3
RR (Dx5) (Mes-Sa/Dx5 cells; triple co-culture screen): 497.67
RR (A431B1) [2, 11]: 50.91
Effect of OATP2B1 expression on toxicity (A431-2B1 vs A431 eGFP) ([5]; co-culture screen, result in words): not transported by OATP2B1

Nc1ccn([C@@H]2O[C@H](CO)[C@@H](O)[C@@H]2O)c(=O)n1 [NSC-63878, Cytarabine]
SR (A431-2B1 vs parental A431), screening of DTP Oncology Set IV [5]: > 18.12

CC(C)C[C@H](NC(=O)[C@H](CCc1ccccc1)NC(=O)CN1CCOCC1)C(=O)N[C@@H](Cc1ccccc1)C(=O)N[C@@H](CC(C)C)C(=O)[C@@]1(C)CO1 [NSC-758252, Carfilzomib]
RR (Mes-Sa-B1) [1, 10]: 55.50
RR (Dx5) (Mes-Sa/Dx5 cells; triple co-culture screen): 88.00
RR (A431B1) [2, 11]: 47.4

C1CN1c1nc(N2CC2)nc(N2CC2)n1 [NSC-9706, Triethylenemelamine]
SR (Mes-Sa/DX5) (Mes-Sa/Dx5 cells): 26.62

Cc1cn(-c2cc(NC(=O)c3ccc(C)c(Nc4nccc(-c5cccnc5)n4)c3)cc(C(F)(F)F)c2)cn1 [NSC-747599, Nilotinib]
SR (Mes-Sa-B1) [1, 7]: 1.23
SR (Mes-Sa/DX5) (Mes-Sa/Dx5 cells; [8]): 4.68

CC[C@]1(O)C[C@@H]2CN(CCc3c([nH]c4ccccc34)[C@@](C(=O)OC)(c3cc4c(cc3OC)N(C)[C@H]3[C@@](O)(C(=O)OC)[C@H](OC(C)=O)[C@]5(CC)C=CCN6CC[C@]43[C@@H]65)C2)C1 [NSC-49842, Vinblastine]
RR (Mes-Sa-B1) [1, 10]: 15.00
RR (Dx5) (Mes-Sa/Dx5 cells; triple co-culture screen): 11.00
RR (A431B1) [2, 11]: 244.4

COc1cc2ncnc(Nc3ccc(F)c(Cl)c3)c2cc1OCCCN1CCOCC1 [gefitinib]
Effect of ABCG2 expression on toxicity (A431-G2 vs parental A431) [3, 9]: conferred resistance

CC[C@]1(O)C[C@H]2CN(CCc3c([nH]c4ccccc34)[C@@](C(=O)OC)(c3cc4c(cc3OC)N(C=O)[C@H]3[C@@](O)(C(=O)OC)[C@H](OC(C)=O)[C@]5(CC)C=CCN6CC[C@]43[C@@H]65)C2)C1 [NSC-67574, Vincristine]
RR (Mes-Sa-B1) [1, 10]: 38.00
RR (Dx5) (Mes-Sa/Dx5 cells; triple co-culture screen): 36.00
RR (A431B1) [2, 11]: 56.8

C[C@@H](Oc1cc(-c2cnn(C3CCNCC3)c2)cnc1N)c1c(Cl)ccc(F)c1Cl [crizotinib]
RR (Mes-Sa-B1) [1, 10]: 9.9
RR (Dx5) (Mes-Sa/Dx5 cells; triple co-culture screen): 21.3
RR (A431B1) [2, 11]: 2.6

CS(=O)(=O)c1ccc(C(=O)Nc2ccc(Cl)c(-c3ccccn3)c2)c(Cl)c1 [NSC-755986, Vismodegib]
SR (Mes-Sa/DX5) (Mes-Sa/Dx5 cells; [8]): > 3.31

CC/C(=C(\c1ccccc1)c1ccc(OCCN(C)C)cc1)c1ccccc1 [NSC-180973, Tamoxifen]
SR, monoculture ([5]; IC50 A431 eGFP / IC50 A4312B1 mCh, monoculture): 0.9
SR (A431-2B1 vs parental A431), screening of DTP Oncology Set IV [5, 12]: 3.49
IC50 (OATP2B1 [6]): 11 ± 0.7 µM

Nc1ccn([C@@H]2O[C@H](CO)[C@@H](O)C2(F)F)c(=O)n1 [NSC-613327, Gemcitabine]
SR (A431-2B1 vs parental A431), screening of DTP Oncology Set IV [5, 12]: 16.5
